# Laboratory results from patent publication US8614240B2, “Benzoxazole derivatives having inhibitory activity against interleukin-6, preparation method thereof, and pharmaceutical composition containing the same” (EWHA University-Industry Collaboration Foundation, priority 2010, dated 2013).
# Experiments:
# [1] = test system: IL-6 reactive STAT3 reporter gene; assay: IL-6 reactive STAT3 reporter gene test (pSTAT3-TA-Luc6 luciferase) in HepG2 cells; format: cell-based; settings: Homo sapiens
# Experimental: A pSTAT3-TA-Luc6 construct, which comprises 8 more STAT3 DNA binding sequence copies as compared to pSTAT-3-TA-Luc and thus, enables to better reflect STAT3 reporter gene assay, was prepared. STAT3 DNA binding sequence was amplified using pSTAT3-TA-Luc plasmid (Clontech, Palo Alto, Calif.) as the template, and oligonucleotide ([…]. SEQ ID NO: 1 (containing Kpn I site)) and oligonucleotide ([…] GAAGCAACGTTC (containing Xho I site)) as forward primer and reverse primer, respectively, by means of a thermocycler. The amplified PCR product was cloned, separated, and then inserted into Kpn I/Xho I site of pSTAT3-TA-Luc plasmid.
# Human hepatoma cell line, HepG2 cell, was incubated in MEM (Minimal Essential Medium, WelGENE Inc, Daegu, Korea) medium under water-saturated condition at 37° C., 5% CO2. To this medium was added 10% (v/v) fetal bovine serum, streptomycin (100 U/mL) and penicillin (100 U/mL). 6-Well cell culture plate was allowed to grow cells up to 80%, and then the specimen was pre-treated for one hour. Then, the medium was changed into 50 μL of serum-free medium, and the mixed solution of 0.1 μL pSTAT3-TA-Luc6 construct and 0.3 μL lipofectamin reagent was added to each well and then allowed to react for 3 hours to transfect cells with pSTAT3-TA-Luc6 construct. The medium was changed to a fresh medium, and the plate was incubated for 24 hours to transiently transfect cells. The transfected cells were serum-starved with 1% BSA/DMEM, and treated with the samples for one hour and then, after adding IL-6, incubated for 3 hours. The mixture was washed with PBS, shaken for one minute with addition of 50 μL of lysis buffer (promega luciferase assay system). After adding 30-100 μL of luciferase substrate (Promega luciferase assay system), the mixture was measured by a luminometer within 5 minutes.
# Among others Compounds 1 and 3 as the materials having high inhibitory effect on IL-6 activity were used at various concentration to measure the degree of inhibitory effect, and the results thereof are as shown in FIGS. 2 and 3.
# [2] = test system: IL-6 induced ERK phosphorylation; assay: Test for inhibitory activity against ERK phosphorylation induced by IL-6 (Western blot, HepG2); format: cell-based, human; settings: HepG2, 30 μg/ml (FIG. 5)
# Experimental: HepG2 cell was divisionally inoculated in 6-well plate, and then starved for 18 hours.
# The starved cells were treated with the samples for one hour, and then stimulated with IL-6 or LIF (Upstate Biotechnology, USA) for 10 minutes. The specimen was treated with 5× cell lysis buffer (Promega) sometimes with vortexing under ice for 30 minutes. The cell lysate obtained as described under B in Experiment 1 (3) was dissolved in 8% SDS-PAGE gel, and transferred to the nitrocellulose membrane. This membrane was blocked with Tris-buffered solution (50 mM Tris-HCl (pH 7.4), 150 mM NaCl, 0.1% Tween 20) containing 5% non-fat dry milk at 4° C. Then, it was incubated together with an appropriate primary antibody (ERK) present in Tris-buffered solution (50 mM Tris-HCl (pH 7.4), 150 mM NaCl, 0.1% Tween 20) containing 5% non-fat dry milk, at room temperature for 1-2 hours. This membrane was washed five times with TBS buffer solution for 10 minutes, and incubated with 1:6000 diluted horseradish peroxidase-conjugated secondary antibodies for one hour. The membrane was washed 10 times with TBS buffer solution, and then mixed and incubated with the 1:1 mixture of HRP Substrate Luminol Reagent and HRP Substrate Peroxide Solution as ELC reagent (Millipore Corp. Ma USA). The chemiluminescent signals were visualized with X-ray film.
smiles,measurement,setting,value
"CCc1ccc(Nc2nc3cc(NC(=O)c4ccccc4)ccc3o2)cc1 [Compound 3, N-(2-(4-ethylphenylamino)benzo[d]oxazol-5-yl)benzamide]",IC50,"[1]; HepG2, read-out: IC50 of IL-6 inhibitory activity (STAT3 reporter gene)",5.8 µM
same,inhibition at 20 µg/mL,"[1]; HepG2, read-out: Inhibition % of IL-6 reactive STAT3 reporter gene activity, 20 ug/ml of sample, HepG2 cells",> 80%
same,Influence on IL-6 induced ERK phosphorylation,[2],did not influence on ERK phosphorylation
